From patent US11389473B2, “Magnesium-containing oxytocin formulations and methods of use” (Tonix Pharmaceuticals Holding Corp., priority 2015, dated 2022)

What was measured:
[1] = test system: rat model of facial thermal nociception; test: Rat model of facial thermal nociception (cheek withdrawal latency to radiant heat); type: in vivo; details: for analgesic effect (elevation in latency to withdrawal): 15-300 min
Procedure: The heat from a projector lamp was focused on the pre-shaved cheek of rats and the intensity was varied to obtain a withdrawal response with a latency of between 6.5 and 8.5 seconds. The intensity applied to achieve such latencies was recorded for each animal. Once stable/acceptable baseline values were obtained, the average latencies for each rat were calculated. After baseline cheek withdrawal latencies were determined for all rats, each rat received a single nasal administration of either normal saline, 15% magnesium chloride in water, or 1% magnesium lactate in water according to the method developed by Frey (Thorne, et al. Neuroscience., 127: 481-496 (2004)). Briefly, rats (under urethane anesthesia) were placed in a supine position with a rolled pad (2×2 gauze) inserted under the dorsal neck to extend the head back toward the supporting surface. The upper surface of the neck was kept horizontal throughout the dosing procedure to maintain the drug solution in the nasal cavity and minimize dripping down the nasopharynx. A 6 μL drop of the respective drug solution was delivered off the tip of a small pipette and presented to the nares on the left side of the rat while occluding the opposite nares. One drop was administered every 2 minutes, alternating between each nares (thus amounting to a four minute interval between doses to the same nares). Each nostril received 4 drops, totaling a combined volume of 48 μL (8 drops of 6 μL each). Drug solutions were coded in order to keep the experimenter blinded as to the substances delivered. Left cheek withdrawal latencies in response to radiant heat stimulation were then measured over the next 3 hours. Withdrawal latencies were measured prior to nasal administration and at 1, 2, and 3 hours post-treatment.
One of 4 concentrations of dibasic magnesium citrate (1:1 Mg/citrate) was applied to rats and the effects of these applications on responses to noxious thermal stimulation of the face were assessed as described above. Each rat received a single nasal administration of 3, 6, 10, or 12% magnesium citrate in water (6 rats/group) according to the method described above. Left cheek withdrawal latencies in response to radiant heat stimulation were then measured over the following 300 minutes. Withdrawal latencies were measured prior to nasal administration and at 15, 30, 45, 60, 120, 180, 240, and 300 min post-treatment.
One of 3 doses of oxytocin in buffered saline was applied to rats and the effects of these applications on responses to noxious thermal stimulation of the face were assessed as described above. Each rat received a single nasal administration of 1, 4, or 8 μg oxytocin in aqueous solution (6 rats/group) according to the method described above. Left cheek withdrawal latencies in response to radiant heat stimulation were then measured over the following 300 minutes. Withdrawal latencies were measured prior to nasal administration and at 15, 30, 45, 60, 120, 180, 240, and 300 min post-treatment.
Aqueous solutions containing a combination of magnesium citrate at one of 3 concentrations with oxytocin at one of 3 doses were applied nasally in rats and changes in withdrawal response latency were measured as above. Each rat received a single nasal administration of 1, 4, or 8 μg of oxytocin in aqueous solution containing 3, 6, or 12% magnesium citrate according to the method described above. Left cheek withdrawal latencies in response to radiant heat stimulation were then measured over the following 300 minutes. Withdrawal latencies were measured prior to nasal administration and at 15, 30, 45, 60, 120, 180, 240, and 300 min post-treatment.
Difference scores were generated for each time point after dosing by comparing the respective withdrawal response latency to pre-dosing (baseline) values.

[2] = test system: patient with chronic tension-type headache; test: Patient with chronic tension-type headache, neck and shoulder pain taking oxytocin sprays; type: in vivo, human
Description: A patient with chronic tension-type headache reported having intense pain in their head, neck and shoulders. The patient took 4 sprays of 7.5 IU/spray oxytocin for a dose of 30 units, at which point their headache pain was gone, but the neck and shoulder pain remained. […] Thus, a higher dose was necessary to affect neck and shoulder pain than was necessary to inhibit head pain in the same patient.

[3] = test system: rat paw inflammation model; test: Rat paw inflammation model (complete Freund's adjuvant, forepaw force withdrawal threshold); type: in vivo; details: nasal
Procedure: The analgesic effect of nasally administered oxytocin on cervical nerve-associated inflammatory pain was assessed in a rat paw inflammation model (Martin et al., Pain 1999, 82:199-205). Oxytocin was nasally administered at one of three doses (193, 385 or 768 micrograms in 48 microliters) and force withdrawal thresholds in grams were determined following mechanical stimulation of the inflamed area (forepaw), at regular intervals over the next three hours, and compared against those of vehicle (phosphate buffered saline) treated rats. Injection of complete Freund's adjuvant into the left forepaw of rats produced a robust inflammation of that paw as well as a substantial decrease in the force necessary to elicit a withdrawal response (mechanical allodynia).

[4] = 1% in water, single nasal administration
[5] = 4 sprays of 7.5 IU/spray, dose of 30 units

## [Cl-].[Cl-].[Mg+2] [magnesium chloride]
[1]; 15% in water, single nasal administration
  analgesia at 2 and 3 hours after dosing: analgesia continuing
[1]; 15% in water, single nasal administration, 1 hour
  analgesic effect compared to nasal saline treated rats: strong analgesic effect

## CC(O)C(=O)[O-].CC(O)C(=O)[O-].[Mg+2] (centres unmarked) [magnesium lactate]
[1]; [4]
  analgesic effect: mild analgesic effect
  withdrawal latencies at the 2 and 3 hour time points: still substantially elevated
[1]; 1% in water, single nasal administration, 48 μL
  rise in withdrawal response latency: approximately 1.5 s

## CC[C@H](C)[C@@H]1NC(=O)[C@H](Cc2ccc(O)cc2)NC(=O)[C@@H](N)CSSC[C@@H](C(=O)N2CCC[C@H]2C(=O)N[C@@H](CC(C)C)C(=O)NCC(N)=O)NC(=O)[C@H](CC(N)=O)NC(=O)[C@H](CCC(N)=O)NC1=O [oxytocin, Cys-Tyr-Ile-Gln-Asn-Cys-Pro-Leu-Gly]
[1]; 1 μg nasally applied
  withdrawal latency: no increase
[1]; 1, 4 or 8 μg in aqueous solution, single nasal administration
  analgesic effect (elevation in latency to withdrawal): clear dose-dependent analgesic effect
[1]; 4 and 8 μg nasally applied
  latency to withdrawal in response to noxious cheek heating: robust increase in latency to withdrawal
[2]; [5]
  headache pain: gone
  neck and shoulder pain: remained
[2]; additional 8-10 sprays, or a total of 60-75 IU
  neck and shoulder pain: receded and ceased
[3]; higher 2 doses, 385 or 768 micrograms in 48 microliters
  effect on mechanical allodynia resulting from inflammation: statistically significant partial reversal of the mechanical allodynia
[3]; lowest dose, 193 micrograms in 48 microliters
  effect on pain thresholds (force withdrawal threshold, inflamed forepaw): ineffective

## magnesium citrate
[1]; 3, 6, 10 or 12% in water, single nasal administration
  analgesic effect (elevation in latency to withdrawal): clear dose-dependent analgesic effect
